Measurements taken from patent publication US20240335570A1, “FOLATE RECEPTOR-TARGETED CONJUGATES WITH BRUSH BORDER MEMBRANE ENZYME-CLEAVABLE LINKERS AND METHODS OF USE IN IMAGING AND TREATING CANCER” (PURDUE RESEARCH FOUNDATION, priority 2021, published 2024).
No end group written: not given here.

Tested on: KB cells
Experiment: Folate conjugate binding curves in KB cells by flow cytometry
Conditions: KB cells incubated 1 hour at 4° C. with increasing concentrations of conjugate, concentrations normalized via fluorescence, read-out: Kd (folate conjugate binding curve)
Method: KB cells were incubated for 1 hour at 4° C. with increasing concentrations of OTL38, BBM1, BBM2, or BBM3 in staining buffer, washed three times with staining buffer, and then analyzed via flow cytometry.
KB cells were incubated for 1 hour at 4° C. with increasing concentrations of OTL38, BBM1, BBM2 or BBM3 in staining buffer, washed three times with staining buffer, suspended in phosphate-buffered saline, and then analyzed via flow cytometry. Concentrations of all conjugates were normalized via fluorescence.

Molecule	Kd [nM]
OTL38 [reference compound]	6.7
CCCCCN1c2ccc(C)cc2C(C)(C)C1CCc1cccc(CCC2N(CCCCC)c3ccc(C)cc3C2(C)C)c1Oc1ccc(CCNC(=O)CCN2C(=O)CC(SCC(NC(=O)C(CCCCN)NC(=O)[C@@H](NC(=O)C(CCCC)NC(=O)CCC(NC(=O)c3ccc(NCc4cnc5nc(N)nc(O)c5n4)cc3)C(=O)O)C(C)C)C(=O)O)C2=O)cc1 (stereo partly drawn) [BBM1]	12.3
BBM2: Folate dye conjugate; a peptide with the sequence M-V-K-G-Y-G-K-C (MVKGYGKC; also: folate dye conjugate (site not given here))	29.6
